Source: patent US9234006B2, “Compounds” (Novacta Biosystems Limited, priority 2011, dated 2016)
Where a SMILES comes first, the peptide text is derived from it. Bridges are numbered along the chain shown (N, C = ends). [ ]: non-standard residue; d: D form. The star is where a group is joined. ξ: configuration not given here. ξHexahydromandeloyl = O=C(C(O)C1CCCCC1)*; Thr(3ξ) = CC(O)[C@H](N)C(=O)O; Propanoyl(3-OH) = O=C(CCO)*; X5 = CC(C)[C@H](N)CCC(=O)*; Octanoyl = CCCCCCCC(=O)*; Dab = NCC[C@H](N)C(=O)O

Experiments:
Test in all cases: MIC susceptibility testing, broth microdilution in CaMHB
[1] = tested on: E. coli ATCC25922; assay type: cell-based, Escherichia coli; conditions: Table 4A, different batches of cation-adjusted Muller-Hinton broth
Method: (§1) To evaluate the potency and spectrum of the compounds, susceptibility testing was performed against four strains of each of the four Gram negative pathogens, Escherichia coli, Pseudomonas aeruginosa, Klebsiella pneumoniae and Acinetobacter baumannii.
(§2) The day before testing, 3 to 4 colonies were picked from fresh Mueller-Hinton Agar (MHA) plate and transferred into 10 mL of Cation adjusted MHB (CaMHB). Cultures were incubated at 37° C. 250 rpm for 18-20 hours before being diluted 100-fold in fresh CaMHB. The subcultures were grown further until the OD600 reached 0.2-0.3 corresponding to […]. The actively growing cultures were diluted 100-fold in fresh medium and used for the inoculum.
(§3) The assays were performed in duplicate.
(§4) Data was obtained under similar conditions to Table 4 except that different batches of cation-adjusted Muller-Hinton broth were used. The MIC values for these compounds are compared with those values obtained for Polymyxin B, Colistin Sulphate, CB-182,804 and NAB739 (as the TFA salt). CB-182,804 is a polymyxin decapeptide derivative with an aryl urea substituent at the N-terminus, which has been claimed to have lower toxicity than Polymyxin B (compound 5 in WO 2010/075416. See page 37). NAB739 has been described previously by Vaara et al.

[2] = tested on: E. coli ATCC700928; assay type: cell-based, Escherichia coli; conditions: Table 4A, different batches of cation-adjusted Muller-Hinton broth
Method: as §1, §2, §3, §4

[3] = tested on: A. baumannii ATCCBAA-747; assay type: cell-based, Acinetobacter baumannii; conditions: Table 4A, different batches of cation-adjusted Muller-Hinton broth
Method: as §1, §2, §3, §4

[4] = tested on: A. baumannii NCTC13423; assay type: cell-based, Acinetobacter baumannii; conditions: Table 4A, different batches of cation-adjusted Muller-Hinton broth
Method: as §1, §2, §3, §4

[5] = tested on: A. baumannii NCTC7844; assay type: cell-based, Acinetobacter baumannii; conditions: Table 4A, different batches of cation-adjusted Muller-Hinton broth
Method: as §1, §2, §3, §4

[6] = tested on: A. baumannii ATCC19606; assay type: cell-based, Acinetobacter baumannii; conditions: Table 4A, different batches of cation-adjusted Muller-Hinton broth
Method: as §1, §2, §3, §4

[7] = tested on: P. aeruginosa ATCC27853; assay type: cell-based, Pseudomonas aeruginosa; conditions: Table 4A, different batches of cation-adjusted Muller-Hinton broth
Method: as §1, §2, §3, §4

[8] = tested on: P. aeruginosa ATCC 9721; assay type: cell-based, Pseudomonas aeruginosa; conditions: P. aeruginosa ATCC9721; Table 4A, different batches of cation-adjusted Muller-Hinton broth
Method: as §1, §2, §3, §4

[9] = tested on: P. aeruginosa ATCCCRM-9027; assay type: cell-based, Pseudomonas aeruginosa; conditions: P. aeruginosa AATCCRM 9027; Table 4A, different batches of cation-adjusted Muller-Hinton broth
Method: as §1, §2, §3, §4

[10] = tested on: P. aeruginosa ATCC10145; assay type: cell-based, Pseudomonas aeruginosa; conditions: Table 4A, different batches of cation-adjusted Muller-Hinton broth
Method: as §1, §2, §3, §4

[11] = tested on: K. pneumoniae ATCC 4352; assay type: cell-based, Klebsiella pneumoniae; conditions: K. pneumoniae ATCC4352; Table 4A, different batches of cation-adjusted Muller-Hinton broth
Method: as §1, §2, §3, §4

[12] = tested on: K. pneumoniae NCTC7427; assay type: cell-based, Klebsiella pneumoniae; conditions: Table 4A, different batches of cation-adjusted Muller-Hinton broth
Method: as §1, §2, §3, §4

[13] = tested on: K. pneumoniae NCTC8172; assay type: cell-based, Klebsiella pneumoniae; conditions: Table 4A, different batches of cation-adjusted Muller-Hinton broth
Method: as §1, §2, §3, §4

[14] = tested on: E. coli NCTC9001; assay type: cell-based, Escherichia coli; conditions: Table 4A, different batches of cation-adjusted Muller-Hinton broth
Method: as §1, §2, §3, §4

[15] = tested on: E. coli NCTC12900; assay type: cell-based, Escherichia coli; conditions: Table 4A, different batches of cation-adjusted Muller-Hinton broth
Method: as §1, §2, §3, §4

Compound | MIC [1] [micrograms/mL] | MIC [2] [micrograms/mL] | MIC [3] [micrograms/mL] | MIC [4] [micrograms/mL] | MIC [5] [micrograms/mL] | MIC [6] [micrograms/mL] | MIC [7] [micrograms/mL] | MIC [8] [micrograms/mL] | MIC [9] [micrograms/mL] | MIC [10] [micrograms/mL] | MIC [11] [micrograms/mL] | MIC [12] [micrograms/mL] | MIC [13] [micrograms/mL] | MIC [14] [micrograms/mL] | MIC [15] [micrograms/mL]
CC(C)C[C@@H]1NC(=O)[C@@H](Cc2ccccc2)NC(=O)[C@H](CCN)NC(=O)[C@@H](NC(=O)[C@H](CCN)NC(=O)[C@@H](NC(=O)CC[C@@H](N)C(C)C)C(C)O)CCNC(=O)[C@H](C(C)O)NC(=O)[C@H](CCN)NC(=O)[C@H](CCN)NC1=O (stereo partly drawn) [Example 29, 4-(R)-Amino-5-methylhexanoyl polymyxin B nonapeptide] (X5-[Thr(3ξ)][Dab][Dab][Dab][dF]L[Dab][Dab][Thr(3ξ)]; lactam 3-C) | 8 | 2 | 1 | 0.5 | 2 | 2 | 0.125 | 0.25 | 0.5 | 0.5 | 0.5 | 0.5 | >32 |  | 
CC(C)C[C@@H]1NC(=O)[C@@H](Cc2ccccc2)NC(=O)[C@H](CCN)NC(=O)[C@@H](NC(=O)[C@H](CCN)NC(=O)[C@@H](NC(=O)CCO)C(C)O)CCNC(=O)[C@H](C(C)O)NC(=O)[C@H](CCN)NC(=O)[C@H](CCN)NC1=O (some centres unmarked) [Example 33, 3-Hydroxypropanoyl polymyxin B nonapeptide] ({Propanoyl(3-OH)}-[Thr(3ξ)][Dab][Dab][Dab][dF]L[Dab][Dab][Thr(3ξ)]; lactam 3-C) | >32 |  |  |  |  | >32 | 0.5 |  |  |  | 4 |  |  |  | 
CC(C)C[C@@H]1NC(=O)[C@@H](Cc2ccccc2)NC(=O)[C@H](CCN)NC(=O)[C@@H](NC(=O)[C@H](CCN)NC(=O)[C@@H](NC(=O)C(O)C2CCCCC2)C(C)O)CCNC(=O)[C@H](C(C)O)NC(=O)[C@H](CCN)NC(=O)[C@H](CCN)NC1=O (stereo partly drawn) [Example 34, 2-(R,S)-(2-Hydroxy-2-cyclohexyl) ethanoyl polymyxin B nonapeptide] (ξHexahydromandeloyl-[Thr(3ξ)][Dab][Dab][Dab][dF]L[Dab][Dab][Thr(3ξ)]; lactam 3-C) | 0.5 |  | 1 | 0.25 | 2 | 1 | 0.125 | 0.25 | 0.5 | 0.5 | 1 | 0.5 | >32 | 8 | 8
CCCCCCCC(=O)N[C@H](C(=O)N[C@H](CO)C(=O)N[C@H]1CCNC(=O)[C@H]([C@@H](C)O)NC(=O)[C@H](CCN)NC(=O)[C@H](CCN)NC(=O)[C@H](CC(C)C)NC(=O)[C@@H](Cc2ccccc2)NC(=O)[C@H](CCN)NC1=O)[C@@H](C)O [NAB739, reference compound] (Octanoyl-T[dS][Dab][Dab][dF]L[Dab][Dab]T; lactam 3-C; N-terminus assumed) | 2 |  |  |  |  | 1 | 1 |  |  |  | 2 |  |  |  | 
